# According to patent US20230102223A1, “PHARMACEUTICAL COMPOSITIONS WITH ANTIFLAVIVIRAL ACTIVITY” (HEALTH RESEARCH, INC., priority 2016, published 2023):
# Counter-ions that a name gives are not always drawn. Like-named read-outs stand apart in the source and are kept apart here.
# Experiments:
# YFV = assay: microbe, parasite or virus in culture; format: cell-based, yellow fever virus
# ZIKV = assay: Time-of-addition experiment in infected A549 cells; format: cell-based, Zika virus; details: for virus reduction: titers at 48 h, no ambient light; for effectiveness of addition at 24-hour post-infection versus at the time of infection: temoporfin 90 nM, niclosamide 0.75 μM, viral plaque reduction assay
# ZIKV strain GZ01/2016 = assay: Viremia model in immunocompetent Balb/C mice; format: in vivo; details: 0.02 mg/mice ip daily for 2 days; RT-qPCR on day 2 post-infection
# Procedure: Viremia on day 2 post-infection (pi) was determined by RT-qPCR, and statistical analysis was performed using the unpaired, two-tailed t-test.
# ZIKV GZ01/2016 strain = assay: Lethal A129 mice model; format: in vivo; details: 1 mg/kg ip daily for 5 days
# Text: For the lethal A129 mice model, a group of four-week old A129 mice were infected intraperitoneally (ip) with 2×10^5 PFU of ZIKV GZ01/2016 strain. […] Mice were observed daily for signs of illness and mortality. Survival curves were compared using the Log-rank test. All the ZIKV-infected animals treated with vehicle died with typical neurological symptoms including hind limb weakness and paralysis (FIG. 31B). […] Viremia was detected by RT-qPCR on day 2 post-ZIKV infection in three-week old Balb/C mice.
# [1] = target: DENV2 His-NS2B/His-MBP-NS3 protease (Dengue virus type 2, UniProt P29990); assay: NS2B/NS3 protease inhibition assay; format: biochemical
# POWV = format: cell-based, Powassan virus; details: without ambient light (in dark)
# DENV2 [2] = test system: DENV2
# [3] = target: ZIKV GST-NS3 protease domain / FLAG-tagged ZIKV NS2B (Zika virus, UniProt Q32ZE1); assay: Competitive GST pull-down assay; format: binding; details: pre-incubation with GST-NS3 beads; dose-dependent
# Procedure: GST-NS3 or the GST-tag (10 μg) was immobilized on Glutathione sepharose-4B affinity beads (GE HealthCare). FLAG-tagged NS2B (10 μg) was incubated with the beads for 2 hours, and subjected to WB, using anti-FLAG (Genscript) and anti-GST antibodies (GE Healthcare). […] The assay was performed the same as in FIG. 32A, except that 2-fold dilution series of drugs were incubated with the GST-NS3 beads overnight prior to incubation with the FLAG-NS2B. […] The binding of NS2B to NS3 in the absence of each drag (DMSO control) was set as 100%. The relative binding of NS2B to NS3 in the presence of each drug was normalized to the DMSO control.
# [4] = target: NS2B-NS3 interactions (Nluc-E66stop/GCN) (Dengue virus type 2, UniProt P29990); assay: biochemical; format: binding, DENV2
# WNV = assay: microbe, parasite or virus in culture; format: cell-based, West Nile virus
# ZIKV NS3 expression = assay: Western blot of viral protein expression; format: cell-based; details: 48 hrs; dose-dependent
# Procedure: The ability of compounds to inhibit viral protein expression was also tested by WB, using GTX133309 ZIKV α-NS3 antibody (GeneTex, Inc.).
# Lower panel, NS3 expression normalized to the GAPDH loading control.
# A549 cells = assay: Cytotoxicity, MTT or WST-8 cell proliferation assay
# [5] = test system: ZIKV (Puerto Rico strain PRVABC59); assay: Viral titer reduction assay in A549 cells, ZIKV; format: cell-based, Zika virus; details: for titer of ZIKV in the absence of light exposure: in dark
# ZIKV strain GZ01 = details: ZIKV strain GZ01, Vero cells, RT-qPCR
# DENV2 His-MBP-NS3 = DENV2 His-MBP-NS3 (Dengue virus type 2, UniProt P29990); assay: Protein thermal shift assay (PTSA); format: binding; details: compound 4.8 μM, protein 2.5 μM
# Procedure: PTSA was conducted using an Applied Biosystem 7500 Fast Real-Time PCR System (ThermoFisher Scientific) from 25 to 80° C. The DENV2 His-MBP-NS3 (final concentration of 2.5 μM in 1× PBS) was mixed with each compound to attain a 4.8 μM final concentration in 1.6% DMSO in the MicroAmp® Fast Optical 96-Well Reaction Plate (ThermoFisher Scientific). Thermal denaturation was monitored using SYPRO Orange (Life Technologies) according to manufacturer's manual. The denaturation of the proteins was monitored by following the increase of the fluorescence emitted by the probe that binds exposed hydrophobic regions of the denatured protein. The melting temperature (Tm) was calculated as the mid-log of the transition phase from the native to the denatured protein, using a Derivative model using the Protein Thermal Shift™ Software v1.0 (ThermoFisher Scientific). The reference unfolding temperature of proteins in 1.6% DMSO (Tm-DMSO) was subtracted from the values in the presence of each compounds (Tm-comp) to obtain thermal shifts, ΔTm=Tm-comp−Tm-DMSO. Compounds were considered to be binders when ΔTm>0.5° C.
# JEV = assay: microbe, parasite or virus in culture; format: cell-based, Japanese encephalitis virus
# [6] = target: refolded His-NS3 protease domain (Dengue virus type 2, UniProt P29990); assay: Surface plasmon resonance (SPR); format: binding
# SLEV = format: cell-based, St. Louis encephalitis virus; details: without ambient light (in dark)
# DENV2 [7] = assay: microbe, parasite or virus in culture; details: Dengue virus
# [8] = Cytotoxicity, MTT or WST-8 cell proliferation assay; details: human, A549 cells
# [9] = Table 1, read-out: NS2B-MBP NS3 protease IC50
# [10] = NS2B-NS3 SLC signal, read-out: SLC IC50
# [11] = ZIKV*, without ambient light (in dark)
# [12] = JEV*, without ambient light (in dark)
# [13] = 25° C., 1:1 Langmuir binding model, read-out: dissociation constant (KD)
# [14] = DENV2, A549, read-out: EC50 (DENV2)
# [15] = Japanese encephalitis virus, A549, JEV
# Chain of NS2B-NS3 interactions (Nluc-E66stop/GCN) (P29990 1476-1660 limits assumed): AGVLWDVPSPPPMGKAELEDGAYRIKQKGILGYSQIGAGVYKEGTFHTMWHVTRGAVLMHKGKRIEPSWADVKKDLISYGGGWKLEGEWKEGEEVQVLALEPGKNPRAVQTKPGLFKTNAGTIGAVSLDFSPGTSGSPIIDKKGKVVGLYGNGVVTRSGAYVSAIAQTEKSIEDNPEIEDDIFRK
# Chain of DENV2 His-NS2B/His-MBP-NS3 protease (P29990 1476-1660 limits assumed): as above
# Chain of refolded His-NS3 protease domain (P29990 1476-1653 limits assumed): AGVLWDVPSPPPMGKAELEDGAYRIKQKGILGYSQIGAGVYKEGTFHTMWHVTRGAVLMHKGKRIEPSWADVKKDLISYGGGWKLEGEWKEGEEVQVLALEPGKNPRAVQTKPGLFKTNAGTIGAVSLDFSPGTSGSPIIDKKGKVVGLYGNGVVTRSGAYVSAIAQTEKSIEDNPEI
# Chain of DENV2 His-MBP-NS3 (P29990 1476-1660 limits assumed): as the sequence (P29990 1476-1660 limits assumed) above
# Chain of ZIKV GST-NS3 protease domain / FLAG-tagged ZIKV NS2B (Q32ZE1 1499-1676): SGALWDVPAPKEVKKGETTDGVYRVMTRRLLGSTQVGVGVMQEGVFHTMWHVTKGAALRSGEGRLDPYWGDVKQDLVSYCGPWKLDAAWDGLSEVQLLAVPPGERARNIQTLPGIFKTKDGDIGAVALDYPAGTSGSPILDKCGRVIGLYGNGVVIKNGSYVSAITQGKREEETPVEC
compound,measurement,setting,value
"3-[10,15,20-tris(3-hydroxyphenyl)-2,3,22,24-tetrahydroporphyrin-5-yl]phenol [Temoporfin]",EC50,"YFV; YFV*, without ambient light (in dark), read-out: EC50",6 ± 1 nM
same,EC90,"YFV; YFV*, without ambient light (in dark), read-out: EC90",15 nM
same,virus reduction,ZIKV; 90 nM added at 0 hours postinfection,92.3%
same,virus reduction,ZIKV; 90 nM added at 1 hour postinfection,92%
same,virus reduction,ZIKV; 90 nM added at 3 hours postinfection,90.5%
same,virus reduction,ZIKV; 90 nM added at 22 hours postinfection,86.5%
same,effectiveness of addition at 24-hour post-infection versus at the time of infection,ZIKV,almost equally effective
same,reduction in ZIKV-induced viremia compared to the vehicle control,ZIKV strain GZ01/2016,about 100 fold
same,infected animals protected (survival),ZIKV GZ01/2016 strain,83%
same,IC50,[1]; [9],760 nM
same,IC50,"[1]; Table 3, read-out: IC50-pro",1100 ± 100 nM
same,"Vmax of the His-NS2B/MBP-NS3 hetero protease complex, % of the DMSO control","[1]; compound at 1.5 μM, 50 nM MBP-NS3, 1 μM His-NS2B, Abz substrate",57%
same,Km versus DMSO control,"[1]; compound at 1.5 μM, Abz substrate",similar
same,EC50,POWV,10 ± 1 nM
same,EC90,POWV,32 nM
same,EC50,"DENV2 [2]; DENV2, Table 3",20 ± 3 nM
same,EC90,"DENV2 [2]; DENV2, Table 3",110 nM
same,EC50,"DENV2 [2]; read-out: EC50 (DENV2), Table 1",73 nM
same,binding of FLAG-NS2B to GST-NS3,[3],significantly decreased the binding
same,IC50,[4]; [10],11200 nM
same,EC90,"WNV; WNV*, without ambient light (in dark)",30 nM
same,EC50,"WNV; WNV*, without ambient light (in dark), read-out: EC50",10 ± 1 nM
same,expression of ZIKV NS3 (western blot),ZIKV NS3 expression,significantly inhibited
same,CC50,"A549 cells; A549 cells, Table 1",40700 nM
same,CC50,A549 cells; Table 3,40700 ± 700 nM
same,EC50,[5]; ZIKV,24 ± 3 nM
same,EC90,[5]; ZIKV,130 nM
same,EC50,[5]; [11],22 ± 2 nM
same,EC90,[5]; [11],120 nM
same,titer of ZIKV in the absence of light exposure,[5],significantly reduced the titer
same,EC50 value,ZIKV strain GZ01,0.1 µg/mL
same,Tm compared to the DMSO control,DENV2 His-MBP-NS3,increased Tm
same,EC50,JEV; [12],11 ± 1 nM
same,EC90,JEV; [12],25 nM
same,Kd,[6]; [13],400 nM
same,EC50,SLEV,8 ± 1 nM
same,EC90,SLEV,25 nM
Cc1ccc(O)c(-n2nc3ccccc3n2)c1 [2-(2H-Benzotriazol-2-yl)-4 methylphenol],IC50,[4],7800 nM
Nc1ccc(N=Nc2ccccc2)cc1 [4-Aminoazobenzene],IC50,[4],12600 nM
O=C(O)c1cccc(-c2noc(-c3ccccc3F)n2)c1 [Ataluren],IC50,[1]; [9],21600 nM
same,Therapeutic index (TI) (CC50/EC50),"DENV2 [2]; DENV2, Table 1",>50
same,IC50,[4],100 nM
same,EC50,DENV2 [7]; [14],< 2000 nM
same,CC50 at 42 h,"[8]; CC50, A549 cells, Table 1",> 100000 nM
CNC(=O)c1ccccc1Sc1ccc2c(/C=C/c3ccccn3)n[nH]c2c1 [Axitinib],IC50,[4],5300 nM
c1ccc(CCNc2nc(-c3ccccc3)cs2)cc1 [Fanetizole],IC50,[4],12400 nM
COc1ccc2nc(NC(=O)Nc3ccccc3)sc2c1 [Frentizole],IC50,[4],380 nM
O=c1c(-c2ccc(O)cc2)coc2cc(O)cc(O)c12 [Genistein],IC50,[4],7200 nM
CC(C)Oc1ccc2c(=O)c(-c3ccccc3)coc2c1 [Ipriflavone],IC50,[4],5300 nM
CCN(CC)c1ccc(C(=C2C=CC(=[N+](CC)CC)C=C2)c2cc(S(=O)(=O)O)ccc2S(=O)(=O)[O-])cc1 [Isosulfan blue],IC50,[4]; [10],12200 nM
"CN(C)c1ccc2nc3ccc(=[N+](C)C)cc-3sc2c1 [Methylene blue, [7-(dimethylamino)phenothiazin-3-ylidene]-dimethylazanium;chloride]",IC50,[1]; [9],41600 nM
same,IC50,"[1]; Table 3, read-out: IC50-pro",40000 nM
same,IC50,[4],5500 nM
same,EC50,DENV2 [7]; [14],< 2000 nM
same,EC50,"WNV; West Nile virus, A549",100 nM
same,EC50,"[5]; Zika virus, A549, ZIKV*, without ambient light (in dark)",280 nM
same,titer of ZIKV in the absence of light exposure,[5],significantly reduced the titer
"O=C(Nc1ccc([N+](=O)[O-])cc1Cl)c1cc(Cl)ccc1O [Niclosamide, 5-chloro-N-(2-chloro-4-nitrophenyl)-2-hydroxybenzamide]",EC50,"YFV; Yellow fever virus, A549",840 ± 20 nM
same,EC90,"YFV; Yellow fever virus, A549",1900 nM
same,effectiveness of addition at 24-hour post-infection versus at the time of infection,ZIKV,almost equally effective
same,IC50,[1]; [9],12300 nM
same,IC50,"[1]; Table 3, read-out: IC50-pro",12300 ± 600 nM
same,Therapeutic index (TI) (CC50/EC50),"DENV2 [2]; DENV2, Table 1",>182
same,binding of FLAG-NS2B to GST-NS3,[3],significantly decreased the binding
same,IC50,[4],700 nM
same,EC50,"DENV2 [7]; DENV2, A549",550 ± 50 nM
same,EC90,"DENV2 [7]; DENV2, A549",2300 nM
same,EC50,DENV2 [7]; [14],550 nM
same,EC90,"WNV; West Nile virus, A549, WNV",2300 nM
same,EC50,"WNV; West Nile virus, A549, WNV, read-out: EC50",540 ± 170 nM
same,expression of ZIKV NS3 (western blot),ZIKV NS3 expression,significantly inhibited
same,EC50,"[5]; Zika virus, A549, ZIKV",480 ± 60 nM
same,EC90,"[5]; Zika virus, A549, ZIKV",1900 nM
same,Tm compared to the DMSO control,DENV2 His-MBP-NS3,increased Tm
same,EC50,JEV; [15],1020 ± 80 nM
same,EC90,JEV; [15],2400 nM
same,Kd,[6],6400 nM
"CC(=O)Oc1ccccc1C(=O)Nc1ncc([N+](=O)[O-])s1 [Nitazoxanide, [2-[(5-nitro-1,3-thiazol-2-yl)carbamoyl]phenyl]acetate]",IC50,[1]; [9],15900 nM
same,IC50,"[1]; Table 3, read-out: IC50-pro",15900 ± 900 nM
same,Therapeutic index (TI) (CC50/EC50),"DENV2 [2]; DENV2, Table 1",>0
same,IC50,[4],3400 nM
same,EC50,DENV2 [7]; [14],< 10000 nM
same,CC50,A549 cells; Table 3,60000 nM
same,CC50 at 42 h,"[8]; CC50, A549 cells, Table 1",> 100000 nM
same,CC50 at 42 h,"[8]; CC50, Table 3",77000 ± 7200 nM
same,EC50,"[5]; Zika virus, A549, ZIKV",1480 ± 180 nM
same,EC90,"[5]; Zika virus, A549, ZIKV",4000 nM
same,EC50,JEV; [15],390 nM
same,Kd,[6]; [13],7300 nM
CC(C)CCOC(=O)c1ccc(N(C)C)cc1 [Padimate],IC50,[4]; [10],14400 nM
Nc1ccc(/N=N/c2ccccc2)c(N)n1 [Phenazopyridine hydrochloride],IC50,[4],13200 nM
Clc1ccccc1-c1nc(-c2ccncc2)no1 [Pifexole],IC50,[4],7500 nM
Oc1ccc(C=Cc2cc(O)cc(O)c2)cc1 [Resveratrol],IC50,[4],9000 nM
O=C(Nc1ncc([N+](=O)[O-])s1)c1cccs1 [Tenonitrozole],IC50,[4],4900 nM
Cc1cc2nc3ccc(N(C)C)cc3[s+]c2cc1N [Toluidine blue],IC50,[4]; [10],14300 nM
CS(=O)(=O)c1ccc(-c2cn3ccccc3n2)cc1 [Zolimidine],IC50,[4],12100 nM
Amlenasox,IC50,[4]; [10],4700 nM
